Data taken from PubChem BioAssay AID1963831 (Molecular Pharmacology Branch, DTP, NCI, 2024).

System: 889142-216-R-J1-PDC complex spheroid viability
Experiment: Anticancer human tumor 889142-216-R-J1-PDC patient-derived bladder carcinoma cell line growth inhibition [POLQ]
Conditions: for IC50: curve of first compound; for viability, T/C: stronger effect = lower value
Method in brief: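 Three-cell-type spheroids modelling solid tumor plus stroma served as the readout system; POL inhibitors were tested individually and in combination, concentration ranges set by clinical Cmax where known.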

[1] = second compound 0.0316 µM, first compound 0.00316 µM
[2] = second compound 0.0316 µM, first compound 0.01 µM
[3] = second compound 0.0316 µM, first compound 0.0316 µM
[4] = second compound 0.0316 µM, first compound 0.1 µM
[5] = second compound 0.0316 µM, first compound 0.316 µM
[6] = second compound 0.0316 µM, first compound 1 µM
[7] = second compound 0.1 µM, first compound 0.00316 µM
[8] = second compound 0.1 µM, first compound 0.01 µM
[9] = second compound 0.1 µM, first compound 0.0316 µM
[10] = second compound 0.1 µM, first compound 0.1 µM
[11] = second compound 0.1 µM, first compound 0.316 µM
[12] = second compound 0.1 µM, first compound 1 µM
[13] = second compound 0.316 µM, first compound 0.00316 µM
[14] = second compound 0.316 µM, first compound 0.01 µM
[15] = second compound 0.316 µM, first compound 0.0316 µM
[16] = second compound 0.316 µM, first compound 0.1 µM
[17] = second compound 0.316 µM, first compound 0.316 µM
[18] = second compound 0.316 µM, first compound 1 µM
[19] = second compound 1 µM, first compound 0.00316 µM
[20] = second compound 1 µM, first compound 0.01 µM
[21] = second compound 1 µM, first compound 0.0316 µM
[22] = second compound 1 µM, first compound 0.1 µM
[23] = second compound 1 µM, first compound 0.316 µM
[24] = second compound 1 µM, first compound 1 µM
[25] = second compound 3.16 µM, first compound 0.00316 µM
[26] = second compound 3.16 µM, first compound 0.01 µM
[27] = second compound 3.16 µM, first compound 0.0316 µM
[28] = second compound 3.16 µM, first compound 0.1 µM
[29] = second compound 3.16 µM, first compound 0.316 µM
[30] = second compound 3.16 µM, first compound 1 µM
[31] = second compound 10 µM, first compound 0.00316 µM
[32] = second compound 10 µM, first compound 0.01 µM
[33] = second compound 10 µM, first compound 0.0316 µM
[34] = second compound 10 µM, first compound 0.1 µM
[35] = second compound 10 µM, first compound 0.316 µM
[36] = second compound 10 µM, first compound 1 µM
[37] = second compound 0.0316 µM, first compound 3.16 µM
[38] = second compound 0.0316 µM, first compound 10 µM
[39] = second compound 0.1 µM, first compound 3.16 µM
[40] = second compound 0.1 µM, first compound 10 µM
[41] = second compound 0.316 µM, first compound 3.16 µM
[42] = second compound 0.316 µM, first compound 10 µM
[43] = second compound 1 µM, first compound 3.16 µM
[44] = second compound 1 µM, first compound 10 µM
[45] = second compound 3.16 µM, first compound 3.16 µM
[46] = second compound 3.16 µM, first compound 10 µM
[47] = second compound 10 µM, first compound 3.16 µM
[48] = second compound 10 µM, first compound 10 µM
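Further: spheroids exposed to compounds for seven days.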
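Wherever viability, T/C is given: 100% = DMSO vehicle control viability.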

C=CCn1c(=O)c2cnc(Nc3ccc(N4CCN(C)CC4)cc3)nc2n1-c1cccc(C(C)(C)O)n1 + COC1C(OC(N)=O)C(O)C(Oc2ccc3c(O)c(NC(=O)c4ccc(O)c(CC=C(C)C)c4)c(=O)oc3c2C)OC1(C)C
IC50 (second compound 0.0316 µM): > 1000 nM | IC50 (second compound 0.1 µM): > 1000 nM | IC50 (second compound 0.316 µM): > 1000 nM | IC50 (second compound 1 µM): > 1000 nM | IC50 (second compound 3.16 µM): > 1000 nM | IC50 (second compound 10 µM): > 1000 nM | viability, T/C [1]: 97.1% | viability, T/C [2]: 152% | viability, T/C [3]: 86.6% | viability, T/C [4]: 83.1% | viability, T/C [5]: 66.1% | viability, T/C [6]: 52% | viability, T/C [7]: 98.3% | viability, T/C [8]: 111% | viability, T/C [9]: 108% | viability, T/C [10]: 81.2% | viability, T/C [11]: 60.9% | viability, T/C [12]: 57.5% | viability, T/C [13]: 100% | viability, T/C [14]: 125% | viability, T/C [15]: 103% | viability, T/C [16]: 86.4% | viability, T/C [17]: 63.6% | viability, T/C [18]: 54.7% | viability, T/C [19]: 112% | viability, T/C [20]: 110% | viability, T/C [21]: 113% | viability, T/C [22]: 89.5% | viability, T/C [23]: 68.6% | viability, T/C [24]: 57% | viability, T/C [25]: 90.2% | viability, T/C [26]: 99.6% | viability, T/C [27]: 85.4% | viability, T/C [28]: 108% | viability, T/C [29]: 64.5% | viability, T/C [30]: 50.2% | viability, T/C [31]: 127% | viability, T/C [32]: 116% | viability, T/C [33]: 97.8% | viability, T/C [34]: 85.9% | viability, T/C [35]: 62.5% | viability, T/C [36]: 51.8%

CCCS(=O)(=O)Nc1ccc(F)c(C(=O)c2c[nH]c3ncc(-c4ccc(Cl)cc4)cc23)c1F + COC1C(OC(N)=O)C(O)C(Oc2ccc3c(O)c(NC(=O)c4ccc(O)c(CC=C(C)C)c4)c(=O)oc3c2C)OC1(C)C
IC50 (second compound 0.0316 µM): 5530 nM | IC50 (second compound 0.1 µM): 4990 nM | IC50 (second compound 0.316 µM): 7020 nM | IC50 (second compound 1 µM): 6230 nM | IC50 (second compound 3.16 µM): 5260 nM | IC50 (second compound 10 µM): 6110 nM | viability, T/C [3]: 108% | viability, T/C [4]: 108% | viability, T/C [5]: 93.5% | viability, T/C [6]: 109% | viability, T/C [37]: 62.2% | viability, T/C [38]: 36.9% | viability, T/C [9]: 126% | viability, T/C [10]: 110% | viability, T/C [11]: 98.5% | viability, T/C [12]: 91.9% | viability, T/C [39]: 55% | viability, T/C [40]: 34.9% | viability, T/C [15]: 126% | viability, T/C [16]: 98.3% | viability, T/C [17]: 92.8% | viability, T/C [18]: 99.5% | viability, T/C [41]: 69.7% | viability, T/C [42]: 39.6% | viability, T/C [21]: 101% | viability, T/C [22]: 109% | viability, T/C [23]: 104% | viability, T/C [24]: 93.9% | viability, T/C [43]: 64.5% | viability, T/C [44]: 40% | viability, T/C [27]: 116% | viability, T/C [28]: 115% | viability, T/C [29]: 98% | viability, T/C [30]: 80.4% | viability, T/C [45]: 63.9% | viability, T/C [46]: 34.6% | viability, T/C [33]: 104% | viability, T/C [34]: 105% | viability, T/C [35]: 95.5% | viability, T/C [36]: 90% | viability, T/C [47]: 68.2% | viability, T/C [48]: 36.2%

CNCc1ccc(-c2[nH]c3cc(F)cc4c3c2CCNC4=O)cc1 + COC1C(OC(N)=O)C(O)C(Oc2ccc3c(O)c(NC(=O)c4ccc(O)c(CC=C(C)C)c4)c(=O)oc3c2C)OC1(C)C
IC50 (second compound 0.0316 µM): > 10000 nM | IC50 (second compound 0.1 µM): > 10000 nM | IC50 (second compound 0.316 µM): > 10000 nM | IC50 (second compound 1 µM): > 10000 nM | IC50 (second compound 3.16 µM): > 10000 nM | IC50 (second compound 10 µM): > 10000 nM | viability, T/C [3]: 120% | viability, T/C [4]: 97.3% | viability, T/C [5]: 100% | viability, T/C [6]: 105% | viability, T/C [37]: 97.2% | viability, T/C [38]: 79.5% | viability, T/C [9]: 109% | viability, T/C [10]: 107% | viability, T/C [11]: 96.4% | viability, T/C [12]: 93.2% | viability, T/C [39]: 98.1% | viability, T/C [40]: 85.4% | viability, T/C [15]: 103% | viability, T/C [16]: 98.6% | viability, T/C [17]: 90.6% | viability, T/C [18]: 122% | viability, T/C [41]: 97.6% | viability, T/C [42]: 58.2% | viability, T/C [21]: 96.8% | viability, T/C [22]: 92.6% | viability, T/C [23]: 103% | viability, T/C [24]: 94.3% | viability, T/C [43]: 82.6% | viability, T/C [44]: 84.2% | viability, T/C [27]: 89.2% | viability, T/C [28]: 106% | viability, T/C [29]: 92% | viability, T/C [30]: 83.9% | viability, T/C [45]: 93.2% | viability, T/C [46]: 89.3% | viability, T/C [33]: 115% | viability, T/C [34]: 98.2% | viability, T/C [35]: 88.5% | viability, T/C [36]: 83.4% | viability, T/C [47]: 104% | viability, T/C [48]: 84%

COc1cccc(OCCCN)c1-c1cc(Nc2cnc(C#N)cn2)n[nH]1 + COC1C(OC(N)=O)C(O)C(Oc2ccc3c(O)c(NC(=O)c4ccc(O)c(CC=C(C)C)c4)c(=O)oc3c2C)OC1(C)C
IC50 (second compound 0.0316 µM): 20.4 nM | IC50 (second compound 0.1 µM): 19.8 nM | IC50 (second compound 0.316 µM): 29.8 nM | IC50 (second compound 1 µM): 17.5 nM | IC50 (second compound 3.16 µM): 26.4 nM | IC50 (second compound 10 µM): 20 nM | viability, T/C [1]: 90.8% | viability, T/C [2]: 55.7% | viability, T/C [3]: 51.2% | viability, T/C [4]: 33.5% | viability, T/C [5]: 34.4% | viability, T/C [6]: 36.2% | viability, T/C [7]: 90% | viability, T/C [8]: 63.5% | viability, T/C [9]: 41.1% | viability, T/C [10]: 31.6% | viability, T/C [11]: 31.5% | viability, T/C [12]: 30.9% | viability, T/C [13]: 73.2% | viability, T/C [14]: 66.6% | viability, T/C [15]: 47.8% | viability, T/C [16]: 38.8% | viability, T/C [17]: 33.8% | viability, T/C [18]: 31.7% | viability, T/C [19]: 87% | viability, T/C [20]: 57.5% | viability, T/C [21]: 40.9% | viability, T/C [22]: 36.7% | viability, T/C [23]: 35% | viability, T/C [24]: 30% | viability, T/C [25]: 78.3% | viability, T/C [26]: 61.5% | viability, T/C [27]: 48% | viability, T/C [28]: 38.2% | viability, T/C [29]: 31.4% | viability, T/C [30]: 28.6% | viability, T/C [31]: 81.7% | viability, T/C [32]: 58.5% | viability, T/C [33]: 45.6% | viability, T/C [34]: 33.8% | viability, T/C [35]: 34.4% | viability, T/C [36]: 30.7%
